What was measured:
Format in all cases: functional
Sitophilus zeamais [1] = assay: Insecticidal activity against […] Sitophilus zeamais assessed as mortality at 5 ug/mg applied topically on thoracic tergite after 24 hr relative to control
Sitophilus zeamais [2] = assay: Insecticidal activity against […] Sitophilus zeamais assessed as mortality at 5 ug/mg applied topically on thoracic tergite after 12 hr relative to control
Musca domestica [3] = assay: Insecticidal activity against second-instar larval stage of Musca domestica (house fly) assessed as mortality at 5 ug/mg applied topically on thoracic tergite after 24 hr relative to control
Musca domestica [4] = assay: Insecticidal activity against second-instar larval stage of Musca domestica (house fly) assessed as mortality at 5 ug/mg applied topically on thoracic tergite after 12 hr relative to control
Periplaneta americana [5] = assay: Insecticidal activity against second-instar nymph stage of Periplaneta americana (American cockroach) assessed as mortality at 5 ug/mg applied topically on thoracic tergite after 24 hr (reference value: 1.7%)
Periplaneta americana [6] = assay: Insecticidal activity against second-instar nymph stage of Periplaneta americana (American cockroach) assessed as mortality at 5 ug/mg applied topically on thoracic tergite after 12 hr (reference value: 1.7%)
Tuta absoluta [7] = assay: Insecticidal activity against second-instar larval stage of Tuta absoluta assessed as mortality at 5 ug/mg applied topically on thoracic tergite after 24 hr (reference value: 1.7%)
Tuta absoluta [8] = assay: Insecticidal activity against second-instar larval stage of Tuta absoluta assessed as mortality at 5 ug/mg applied topically on thoracic tergite after 12 hr (reference value: 1.7%)
Ascia monuste [9] = assay: Insecticidal activity against second-instar larval stage of Ascia monuste orseis assessed as mortality at 5 ug/mg applied topically on thoracic tergite after 24 hr (reference value: 1.7%)
Ascia monuste [10] = assay: Insecticidal activity against second-instar larval stage of Ascia monuste orseis assessed as mortality at 5 ug/mg applied topically on thoracic tergite after 12 hr relative to control

| Structure (SMILES) | mortality (Sitophilus zeamais [1]) | mortality (Sitophilus zeamais [2]) | mortality (Musca domestica [3]) | mortality (Musca domestica [4]) | mortality (Periplaneta americana [5]) | mortality (Periplaneta americana [6]) | mortality (Tuta absoluta [7]) | mortality (Tuta absoluta [8]) | mortality (Ascia monuste [9]) | mortality (Ascia monuste [10]) |
| --- | --- | --- | --- | --- | --- | --- | --- | --- | --- | --- |
| COC(=O)[C@H]1[C@H](/C=C/c2ccc([N+](=O)[O-])cc2)C1(C)C | 0% | 0% | 25% | 17.5% | 20% | 10% | 55% | 35% | 36.4% | 2.5% |
| COC(=O)[C@H]1[C@H](/C=C\c2ccc(Br)cc2)C1(C)C | 0% | 0% | 25% | 15% | 72.5% | 70% | 18.1% | 15.6% | 85% | 15% |
| COC(=O)[C@H]1[C@H](/C=C/c2ccc(Cl)cc2)C1(C)C | 0% | 0% | 22.5% | 17.5% | 95% | 87.5% | 72.5% | 67.5% | 82.5% | 80% |
| COC(=O)[C@H]1[C@H](/C=C/c2ccccc2)C1(C)C | 12.5% | 10% | 12.5% | 7.5% | 37.4% | 15.6% | 21.9% | 12.5% | 50% | 7.5% |
| COC(=O)[C@H]1[C@H](/C=C\c2ccc(Cl)cc2)C1(C)C | 0% | 0% | 25% | 20% | 100% | 92.5% | 100% | 100% | 90% | 85% |
| COC(=O)[C@H]1[C@H](/C=C\c2ccc(F)cc2)C1(C)C | 10% | 7.5% | 15% | 12.5% | 67.5% | 65% | 90% | 87.5% | 92.5% | 67.5% |
| CC1(C)C(C=C(Cl)Cl)C1C(=O)OCc1cccc(Oc2ccccc2)c1 (stereo not given) [PERMETHRIN] | 17.5% | 17.5% | 72.5% | 72.5% | 97.5% | 87.5% | 97.5% | 93.2% | 100% | 100% |
| COC(=O)[C@H]1[C@H](/C=C\c2ccccc2)C1(C)C | 12.5% | 10% | 12.5% | 7.5% | 37.4% | 15.6% | 21.9% | 12.5% | 50% | 7.5% |
| COC(=O)[C@H]1[C@H](/C=C/c2ccc(Br)cc2)C1(C)C | 0% | 0% | 22.5% | 12.5% | 65% | 55% | 25% | 15% | 85% | 5% |
| COC(=O)[C@H]1[C@H](/C=C\c2ccc([N+](=O)[O-])cc2)C1(C)C | 0% | 0% | 27.5% | 20% | 24.3% | 10.9% | 67.5% | 42.5% | 45% | 20% |
| COC(=O)[C@H]1[C@H](/C=C/c2ccc(F)cc2)C1(C)C | 7.5% | 5% | 15% | 10% | 67.5% | 62.5% | 77.5% | 60% | 90% | 65% |
